Consider two compounds from ChEMBL document CHEMBL3351666, “Nocatriones A and B, photoprotective tetracenediones from a marine-derived Nocardiopsis sp” (J Nat Prod, 2014).

Data set [1] can be described thus: Reduction in MMP1 secretion in human MCTT MC1233 cells at 5 uM by ELISA method. The data set is classed as functional. (In general: ELISA stands for enzyme-linked immunosorbent assay.)
A short description of data set [2]: Reduction in MMP1 secretion in human ScienCell 2320 cells at 10 uM by ELISA method. The class given is functional.
The nature of data set [3]: Cytotoxicity against human MCTT MC1233 cells exposed to 144 mJ/cm2 UVB irradiation assessed as reduction in cell viability at 1 to 10 uM incubated for 72 hrs by MTT assay. The class given is cell-based. The following applies: mctt mc1233, 72 h. For orientation: Tetrazolium assays rely on reduction of a dye to a coloured formazan, in cell work by metabolically active cells.

A further data set concerns MCTT MC1233. The experiment in a line: Reduction in UVB radiation-induced MMP1 secretion in human MCTT MC1233 cells exposed to 144 mJ/cm2 UVB irradiation by ELISA method. The data set is classed as functional, cell-based.
A short description of data set [4]: Cytotoxicity against human MCTT MC1233 cells assessed as reduction in cell viability at 1 to 10 uM incubated for 72 hrs by MTT assay. The data set is classed as cell-based. The settings on record: mctt mc1233, 72 h.
Data set [5] can be described thus: Reduction in MMP1 secretion in human MCTT MC1233 cells at 10 uM by ELISA method. The data set is classed as functional.
The nature of data set [6]: Cytotoxicity against human ScienCell 2320 cells assessed as reduction in cell viability at 1 to 10 uM incubated for 72 hrs by MTT assay. The data set is classed as cell-based. The settings on record: sciencell 2320, 72 h.
A short description of data set [7]: Reduction in UVB radiation-induced MMP1 secretion in human ScienCell 2320 cells at 10 uM exposed to 144 mJ/cm2 UVB irradiation by ELISA method. The data set is classed as functional. The following applies: ScienCell 2320, light or radiation study.
Data set [8] can be described thus: Cytotoxicity against human ScienCell 2320 cells exposed to 144 mJ/cm2 UVB irradiation assessed as reduction in cell viability at 1 to 10 uM incubated for 72 hrs by MTT assay. The class given is cell-based. The following applies: sciencell 2320, 72 h.
Data set [9] is described as follows: Reduction in UVB radiation-induced MMP1 secretion in human MCTT MC1233 cells at 10 uM exposed to 144 mJ/cm2 UVB irradiation by ELISA method. The following applies: MCTT MC1233, light or radiation study. The data set is classed as functional.

By inhibition is commonly meant the drop in the measured response relative to a control, in per cent.

The structures appear in SMILES notation.

Regarding `Cc1c2c(cc(O)c1-c1cc(O)cc(=O)o1)C(=O)c1cc3cc(O)cc(O)c3c(O)c1C2=O`, at 5 µM the inhibition in data set [1] was 58%. Moreover, the inhibition at 10 µM came out at 99% in [2], 83% in data set [5], 99% in data set [7] and 65% in data set [9]. In addition, the Activity entry in data set [3], in data set [4], in data set [6] and in data set [8] was “Non-toxic” in each case. For the same compound, in the data set with MCTT MC1233, the inhibition entry was “Dose-dependent effect”.

Take `Cc1c(-c2cc(O)cc(=O)o2)c(O)cc2cc3c(c(O)c12)C(=O)c1c(O)cc(O)cc1C3=O`: the results for the inhibition at 10 µM in data set [2], in data set [7] and in [9] were 93%, 91% and 18%, respectively. In addition, the Activity result in [3], in data set [4], in data set [6] and in data set [8] was “Non-toxic” throughout. The inhibition result with MCTT MC1233 is “Dose-dependent effect”.
